One may read the IC50 as the midpoint of a concentration-inhibition curve.

The subject of assay [1] is LN229 MGMT−/MMR+ cells. Put plainly: Short-term cell viability assay, LN229 MGMT-/MMR+. The class given is cell-based, human. As to conditions: for IC50: Homo sapiens, read-out: IC50 against LN229 cell lines, MGMT− MMR+; for MGMT− TI: Table III. The protocol: LN229 MGMT- and MGMT+ cell lines were a gift from B. Kaina (Johannes Gutenberg University Mainz, Mainz, Germany) and grown in Gibco® Duilbecco's Modified Eagle Medium with 10% fetal bovine serum (DMEM). For each compound tested, the relationship between MGMT status and MMR status and compound activity, in terms of IC50 values ([…]), was determined by the following method. On day 1, LN229 isogenic cells of varying MGMT and MMR status were seeded in 96 well format at a density of 2000 cells/well in 100 μL of DMEM media and allowed to adhere overnight. On day 2, a drug master plate was made with 100×the desired maximal concentration of test compound and serially diluted by 2 until 100×the minimal desired concentration, with one DMSO control. Then daughter plates were created with varied concentrations from 3-times the minimal concentration to 3-times the maximal desired concentration. Afterwards, 50 μL of daughter drug plate was added to 100 μL of the seeded cells for a final concentration of 1×in triplicate. Cells were allowed to grow for 6 days. On day 7, the cells were fixed, and stained with Hoechst nuclear dye and imaged to determine growth inhibition.
For each compound tested, the relationship between MGMT status and MMR status and compound activity, in terms of IC50 values (in μM), was determined. In addition, for each compound, the therapeutic index (TI) was calculated, according to the equation MGMT TI=IC50 (MGMT+/MMR+) divided by IC50 (MGMT−/MMR+). The T1 indicates the efficacy of a compound in treating the targeted MGMT-cancer cells as compared to potential for the same compound to damage, or have adverse effects against, normal cells which are MGMT+cells, The higher the value of the TI, the safer the compound is. […] MMR RI (resistance index)=IC50 (MGMT−/MMR−) divided by IC50 (MGMT−/MMR+). The higher the value of the RI, the less likely that resistance to the compound will develop.
Short-term Cell Viability Assay. Cells were seeded in 96-well plates at 1000 or 2000 cells/well and allowed to adhere at 23° C. for 60 min and then incubated overnight at 37° C. Cells were treated with indicated concentrations of compounds in triplicate for 4-6 days prior to fixation with 3.7% paraformaldehyde and nuclear staining with 1 μg/mL Hoechst 33342 dye. Cells were imaged on a Cytation 3 imaging reader (BioTek) and quantified using CellProfiler software. For in vitro short-term growth delay experiments, IC50 values were determined from the nonlinear regression equation, [inhibitor] vs normalized response with variable slope.

The subject of assay [2] is LN229 MGMT+ shMSH3 cells. Description: Short-term viability assay, LN229 MGMT+ shMSH3. Format: cell-based. Conditions: Homo sapiens, LN-229, Table III, read-out: IC50 against LN229 cell lines, MGMT MMR−. The protocol: The activity of KL-50 in MGMT-LN229 cells engineered to lack expression of other key MMR proteins including MSH6, MLH1, PMS2, and MSH3 was also confirmed. Western blotting was performed in LN229 MGMT+/−cells with stable expression of shRNA targeting MSH6, MLH1, PMS2, or MSH3 to confirm depletion of the shRNA targets. In shMSH6 cells, there was reduced expression of MSH2, and in shMLH1 cells, there was loss of PMS2, due to destabilization in the setting of loss of their heterodimeric partners. GAPDH serves as loading control. […] Short-term viability assay curves for KL-50 in LN229 MGMT+/−, MMR+/shMSH6 cells. […] Short-term viability assay curves for KL-50 in LN229 MGMT+/−, MMR+/shMLH1 cells. […] Short-term viability assay curves for KL-50 in LN229 MGMT+/−, MMR+/shPMS2 cells. […] Short-term viability assay curves for KL-50 in LN229 MGMT+/−, MMR+/shMSH3 cells.
MMR Protein shRNA Knockdown. pGIPZ lentiviral shRNA vectors targeting MSH2, MSH6, MLH1, PMS2, and MSH3 were purchased from Horizon Discovery (Table IV). […]
Short-term Cell Viability Assay. […] Cells were imaged on a Cytation 3 imaging reader (BioTek) and quantified using CellProfiler software. For in vitro short-term growth delay experiments, IC50 values were determined from the nonlinear regression equation, [inhibitor] vs normalized response with variable slope.

For assay [3], the system named is LN229 MGMT−/MMR− intracranial tumors. Put plainly: Orthotopic intracranial LN229 MGMT-/MMR- model. The class given is in vivo, mouse. As to conditions: 25 mg/kg IP M-F x 1 week as printed. An excerpt: FIGS. 10A-10G. KL-50 is efficacious in an LN229 MGMT−/MMR− intracranial model and is well tolerated with limited myelosuppression at supratherapeutic doses. […] (FIG. 10B) Mean body change with SEM of mice during maximum tolerated dose experiment in non-tumor bearing mice. (FIGS. 10C-10G) Complete blood counts for mice pre-treatment and 7 days post-treatment with escalations of single dose KL-50 delivered PO. WBC lower limit of normal (LLN): 2.2 K/L; Neutrophils LLN: 0.42 K/L; Lymphocyte LLN: 1.7 K/L; RBC LLN: 3.47 M/L; Platelet LLN: 155 K/L. *, P<0.05; ****, P<0.0001.
Mouse Protocol for Intracranial Study. LN229 MGMT−/MMR− cells stably expressing firefly luciferase (lentivirus-plasmids from Cellomics Technology; PLV-10003), were injected intracranially using a stereotactic injector. Briefly, 1.5 million cells in […] PBS were injected into the brain and the mice were imaged weekly using the IVIS Spectrum In Vivo Imaging System (PerkinElmer) according to the manufacturer's protocol. Images were taken on a weekly basis and acquired 10 min post intraperitoneal injection with d-luciferin (150 mg/kg of animal mass). […] Quantification of BLI flux (photons/see) was made through the identification of a region of interest (ROI) for each tumor.

Where two headings read alike, the source gives them in different places.

Regarding `NC(=O)c1ncn2c(=O)n(CCF)nnc12` [KL-50], the IC50 in assay [1] (LN-229, Table III, shRNA None) came out at 13.2 ± 0.8 µM; in assay [1] (LN-229, Table II) it was 24.7 ± 4.1 µM; in assay [2] it was 328 ± 26 µM. Moreover, the “TI / RI, in words” value in assay [1] (LN229 isogenic lines) was “superior TI and RI”. Besides, the “MGMT− TI (therapeutic index)” value in assay [1] (Table II, IC50 (MGMT+/MMR+) divided by IC50 (MGMT−/MMR+)) is recorded as 24. For the same compound, in assay [1] (shRNA None), the “MGMT− TI” value is listed as 22. Also, the “intracranial tumor growth (BLI)” value in assay [3] was “effective”.

Turning to `Cn1nnc2c(C(N)=O)ncn2c1=O` [TMZ, 4-methyl-5-oxo-2,3,4,6,8-pentazabicyclo[4.3.0]nona-2,7,9-triene-9-carboxamide, reference compound], the 50% inhibitory concentration (IC50) in assay [1] (LN-229, 144 h, Table 1, 6 days growth) came to 8.3 ± 3.5 µM; in assay [1] (LN-229, Table III, shRNA None) it was 5.1 ± 0.8 µM; in assay [1] (LN-229, Table II), 8.3 ± 3.5 µM; in assay [2], 649 ± 32 µM. The “MGMT− TI” value in assay [1] (shRNA None) is given as 137. Also, the “intracranial tumor growth (BLI)” value in assay [3] is given as “only transiently suppressed tumor growth”.
